Data as given in patent publication US9499561B2, “Fused pyrimidine compound, and preparation method, intermediate, composition, and uses thereof” (Shanghai Yingli Science and Technology Co., Ltd., priority 2012, dated 2016).

Experiments:
[1] = target: PI3Kα (Homo sapiens (Human), UniProt P42336); assay: PI3Kα enzymatic inhibitory activity IC50 assay (Caliper Reader); format: biochemical
Experimental: (§1) Biological Effect Example 1 PI3Kα and PI3Kδ Enzymatic Inhibitory Activity IC50 Assay • 1. Buffer preparation: 50 mM HEPES, pH 7.5, 3 mM MgCl2, 1 mM EGTA, 100 mM NaCl, 0.03% CHAPS. • 2. Compound was formulated in 100% DMSO in a concentration gradient, deposited to a 384-well plate to make final DMSO concentration of 1%. • 3. PI3Kα and PI3Kδ enzymes were diluted to be the optimum concentration with the following buffer: 50 mM HEPES, pH 7.5, 3 mM MgCl2, 1 mM EGTA, 100 mM NaCl, 0.03% CHAPS, 2 mM DTT. Transferred to a 384-well plate and incubated with the compound for a certain time. • 4. […] The reaction was performed in a 384-well plate for 1 h at room temperature for PI3Kα and 2 hrs at room temperature for PI3Kδ. • 5. Read the conversion rate using Caliper Reader, and calculate the inhibition rate as the average of two tests.

[2] = target: PI3Kδ (Homo sapiens (Human), UniProt O00329); assay: PI3Kδ enzymatic inhibitory activity IC50 assay (Caliper Reader); format: biochemical
Chain of PI3Kδ (O00329 whole entry): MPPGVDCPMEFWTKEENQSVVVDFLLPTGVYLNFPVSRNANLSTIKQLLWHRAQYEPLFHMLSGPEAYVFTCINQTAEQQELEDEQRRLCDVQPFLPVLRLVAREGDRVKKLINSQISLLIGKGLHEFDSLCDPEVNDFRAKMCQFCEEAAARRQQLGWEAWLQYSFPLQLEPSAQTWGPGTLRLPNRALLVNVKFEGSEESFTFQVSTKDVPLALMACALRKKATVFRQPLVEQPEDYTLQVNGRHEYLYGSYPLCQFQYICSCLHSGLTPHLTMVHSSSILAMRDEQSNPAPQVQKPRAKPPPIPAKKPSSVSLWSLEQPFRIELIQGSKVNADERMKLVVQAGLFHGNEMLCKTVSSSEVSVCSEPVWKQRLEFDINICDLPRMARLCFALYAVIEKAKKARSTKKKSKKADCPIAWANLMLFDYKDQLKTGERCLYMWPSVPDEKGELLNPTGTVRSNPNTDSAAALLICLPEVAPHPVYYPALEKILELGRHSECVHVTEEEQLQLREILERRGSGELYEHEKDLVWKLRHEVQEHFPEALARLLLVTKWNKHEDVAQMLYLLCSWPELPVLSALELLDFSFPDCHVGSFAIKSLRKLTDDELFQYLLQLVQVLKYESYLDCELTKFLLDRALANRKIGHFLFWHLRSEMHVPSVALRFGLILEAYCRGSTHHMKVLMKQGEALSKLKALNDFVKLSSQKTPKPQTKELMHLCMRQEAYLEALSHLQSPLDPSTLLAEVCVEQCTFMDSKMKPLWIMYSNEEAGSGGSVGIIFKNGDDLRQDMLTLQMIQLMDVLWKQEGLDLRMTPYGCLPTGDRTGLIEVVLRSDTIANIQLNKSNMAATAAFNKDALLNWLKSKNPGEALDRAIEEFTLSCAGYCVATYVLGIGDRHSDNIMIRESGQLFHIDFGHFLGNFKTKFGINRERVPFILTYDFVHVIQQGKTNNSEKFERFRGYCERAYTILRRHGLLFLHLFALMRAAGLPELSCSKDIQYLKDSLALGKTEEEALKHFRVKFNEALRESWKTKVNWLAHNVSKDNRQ
Chain of PI3Kδ (P27986 whole entry partner): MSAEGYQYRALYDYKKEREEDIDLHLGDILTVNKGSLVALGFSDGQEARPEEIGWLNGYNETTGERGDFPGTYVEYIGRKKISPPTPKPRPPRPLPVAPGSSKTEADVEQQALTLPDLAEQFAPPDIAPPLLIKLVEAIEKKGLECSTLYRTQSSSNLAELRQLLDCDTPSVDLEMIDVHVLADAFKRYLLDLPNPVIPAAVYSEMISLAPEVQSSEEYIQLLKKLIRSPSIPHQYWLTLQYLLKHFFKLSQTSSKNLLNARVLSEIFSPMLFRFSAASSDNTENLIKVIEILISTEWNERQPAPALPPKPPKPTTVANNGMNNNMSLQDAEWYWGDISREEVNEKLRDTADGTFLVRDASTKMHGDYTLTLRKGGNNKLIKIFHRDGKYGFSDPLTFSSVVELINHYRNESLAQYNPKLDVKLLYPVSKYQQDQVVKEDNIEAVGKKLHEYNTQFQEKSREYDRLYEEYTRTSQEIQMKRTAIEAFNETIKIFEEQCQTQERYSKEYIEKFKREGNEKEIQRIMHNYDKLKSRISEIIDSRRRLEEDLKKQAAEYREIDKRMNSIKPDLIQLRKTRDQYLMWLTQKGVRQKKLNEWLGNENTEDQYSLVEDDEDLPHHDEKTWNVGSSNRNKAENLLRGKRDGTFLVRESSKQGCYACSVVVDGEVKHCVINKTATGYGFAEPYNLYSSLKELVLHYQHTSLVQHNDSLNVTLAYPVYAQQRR
Experimental: as §1

[3] = test system: U87-MG; assay: Cell proliferation inhibition assay (MTT), U87-MG; format: cell-based; settings: 72 hrs
Experimental: (§2) Cancer cell lines (A549, PC3, or […]) in the logarithmic growth phase were plated at a density of about 3,000 per well in 96-well plates, 90 μL/well, using double wells for each concentration. Control wells containing corresponding concentration of vehicle and without cells were also prepared. After 24 hrs, positive control compound and example compounds were added to make 10 μL/well and final DMSO concentration of 0.5%. The cells were incubated with compounds for 72 hrs in the presence of 10% Invitrogen fetal bovine serum, 37° C., 5% CO2. 5 mg/mL MTT solution was added to make 10 μL/well, and incubated for 4 hours at 37° C. A ddH2O solution (10% SDS, 5% isobutanol, 10 mmol/L HCl) was added to make 100 μL/well and incubated overnight at 37° C.

[4] = test system: PC3; assay: Cell proliferation inhibition assay (MTT), PC3; format: cell-based; settings: 72 hrs
Experimental: as §2

[5] = test system: A549; assay: Cell proliferation inhibition assay (MTT), A549; format: cell-based; settings: 72 hrs
Experimental: as §2

[6] = Body weight of nude mice in the U87MG xenograft study, preliminary evaluation of compound toxicity; format: in vivo; settings: for Body weight D 0: day 0; for Body weight D 20: day 20
Experimental: (§3) Groups of nude mice were implanted subcutaneously in the right hind back with 4×10^6 U87MG cells. Start dosing when mean tumor volume reached approximately 150 (100-200) mm^3. Grouping method: before dosing, animals were weighted, tumor sizes were measured, and randomized according to the tumor size (randomized block design), 8 mice per group. A solvent (0.5% CMC-Na+0.2% Tween-80) was dosed once daily by oral gavage for solvent control group, and pre-determined dose of test compound was dosed once daily by oral gavage for a dosing group, for 20 consecutive days.
(§4) Tumor diameters were measured twice a week with a vernier caliper. Tumor volume was calculated with formula: V=0.5a×b^2, a and b represent longer and shorter diameter of tumor. […] Meanwhile, the weight of nude mice in each group was weighed twice weekly for a preliminary evaluation of compound toxicity.

[7] = test system: malignant glioma cell U87MG xenograft; assay: Growth inhibition of malignant glioma cell U87MG xenograft in nude mice; format: in vivo; settings: for TGI: 20 days; for Tumor size D 0: day 0; for Tumor size D 20: day 20
Experimental: as §3, §4

[8] = 25 mg/kg once daily oral gavage
[9] = 50 mg/kg once daily oral gavage
[10] = 20 mg/kg once daily oral gavage
[11] = 150 mg/kg once daily oral gavage

Chain of PI3Kα (P42336 whole entry): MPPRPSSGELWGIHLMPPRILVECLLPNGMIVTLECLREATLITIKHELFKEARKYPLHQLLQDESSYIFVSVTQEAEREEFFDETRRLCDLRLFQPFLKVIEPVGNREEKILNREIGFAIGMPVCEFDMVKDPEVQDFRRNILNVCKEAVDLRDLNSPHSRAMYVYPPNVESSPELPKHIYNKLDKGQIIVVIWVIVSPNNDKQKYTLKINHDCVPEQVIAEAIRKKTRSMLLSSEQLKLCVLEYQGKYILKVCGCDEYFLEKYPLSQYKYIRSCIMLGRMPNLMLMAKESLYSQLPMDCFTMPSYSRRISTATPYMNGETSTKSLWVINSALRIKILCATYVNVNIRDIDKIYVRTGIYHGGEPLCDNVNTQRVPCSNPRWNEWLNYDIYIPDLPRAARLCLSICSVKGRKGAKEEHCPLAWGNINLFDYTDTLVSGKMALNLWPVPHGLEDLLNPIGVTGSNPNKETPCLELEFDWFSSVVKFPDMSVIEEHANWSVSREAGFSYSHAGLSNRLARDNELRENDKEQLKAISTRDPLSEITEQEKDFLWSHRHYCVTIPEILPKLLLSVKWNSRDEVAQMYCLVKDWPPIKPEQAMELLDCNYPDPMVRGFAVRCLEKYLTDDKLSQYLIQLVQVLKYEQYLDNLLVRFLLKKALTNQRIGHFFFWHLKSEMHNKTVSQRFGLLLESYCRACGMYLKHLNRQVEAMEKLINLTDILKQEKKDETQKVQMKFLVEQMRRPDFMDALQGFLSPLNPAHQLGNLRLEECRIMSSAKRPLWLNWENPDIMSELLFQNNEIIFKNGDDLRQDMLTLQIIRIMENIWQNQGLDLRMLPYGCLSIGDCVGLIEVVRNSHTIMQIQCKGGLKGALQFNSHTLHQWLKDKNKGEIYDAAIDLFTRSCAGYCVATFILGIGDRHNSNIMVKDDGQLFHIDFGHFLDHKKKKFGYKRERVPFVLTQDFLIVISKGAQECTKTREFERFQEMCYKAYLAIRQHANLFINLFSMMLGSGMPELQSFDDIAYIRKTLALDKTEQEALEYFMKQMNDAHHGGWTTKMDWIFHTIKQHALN
Chain of PI3Kα (P27986 whole entry partner): as the sequence (P27986 whole entry partner) above

Cc1sc2c(-c3cccc4[nH]ncc34)nc(N3CCOCC3)nc2c1CN1CCN(S(C)(=O)=O)CC1 [Compound 30]
IC50 [1]: 262 nM | IC50 [2]: 60.4 nM

CC(C)(O)C(=O)N1CCN(Cc2csc3c(-c4cnc(N)nc4)nc(N4CCOCC4)nc23)CC1 [Compound 20]
IC50 [1]: 46.2 nM | IC50 [2]: 52 nM

Cc1nc(N)ncc1-c1nc(N2CCOCC2)nc2c(CN3CCN(S(C)(=O)=O)CC3)csc12 [Compound 11]
IC50 [1]: 13.1 nM | IC50 [2]: 28.3 nM | IC50 [3]: 12200 nM | IC50 [4]: 10100 nM | IC50 [5]: 6440 nM

C[C@H](O)C(=O)N1CCN(Cc2csc3c(-c4cnc(N)nc4)nc(N4CCOCC4)nc23)CC1 [Compound 18]
IC50 [1]: 12 nM | IC50 [2]: 12.6 nM | IC50 [3]: 8870 nM | IC50 [4]: 2310 nM | IC50 [5]: 3640 nM

CS(=O)(=O)N1CCN(Cc2csc3c(-c4cncnc4)nc(N4CCOCC4)nc23)CC1 [Compound 15]
IC50 [1]: 104 nM | IC50 [2]: 200 nM

Nc1ncc(-c2nc(N3CCOCC3)nc3ccoc23)cn1 [Compound 31]
IC50 [1]: 26 nM | IC50 [2]: 290 nM

Cc1nc(N)ncc1-c1nc(N2CCOCC2)nc2c(CN3CCN(C(=O)[C@H](C)O)CC3)csc12 [Compound 22]
IC50 [1]: 77 nM | IC50 [2]: 11 nM

Cc1sc2c(-c3cnc(N)nc3)nc(N3CCOCC3)nc2c1CN1CCN(C(=O)[C@@H](C)O)CC1 [Compound 25]
IC50 [1]: 56 nM | IC50 [2]: 13 nM | IC50 [3]: 11300 nM | IC50 [4]: 3060 nM | IC50 [5]: 6680 nM

Cc1nc(N)ncc1-c1nc(N2CCOCC2)nc2c(CN3CCN(C(=O)[C@H](C)O)CC3)csc12 [Compound 21]
IC50 [1]: 35 nM | IC50 [2]: 4.7 nM

Cc1sc2c(-c3cnc(N)nc3)nc(N3CCOCC3)nc2c1CN1CCN(C(=O)[C@H](C)O)CC1 [Compound 24]
IC50 [1]: 18.9 nM | IC50 [2]: 8.3 nM | IC50 [3]: 9360 nM | IC50 [4]: 2070 nM | IC50 [5]: 2740 nM

Cc1sc2c(-c3cnc(N)nc3)nc(N3CCOCC3)nc2c1CN1CCN(CCO)CC1 [Compound 36]
IC50 [1]: 157 nM | IC50 [2]: 56 nM

CN(Cc1csc2c(-c3cnc(N)nc3)nc(N3CCOCC3)nc12)C(=O)CO [Compound 32]
IC50 [1]: 32 nM

CS(=O)(=O)N1CCN(Cc2cc3nc(-c4cccc5[nH]ncc45)nc(N4CCOCC4)c3s2)CC1 [GDC-0941, reference compound]
Body weight D 0 [6, 8]: 22.24 g | Body weight D 20 [6, 8]: 23.64 g | Body weight D 0 [6, 9]: 22.47 g | Body weight D 20 [6, 9]: 23.57 g | TGI [7, 8]: 57.65% | Tumor size D 0 [7, 8]: 149.86 mm^3 | Tumor size D 20 [7, 8]: 456.64 mm^3 | TGI [7, 9]: 66.07% | Tumor size D 0 [7, 9]: 150.72 mm^3 | Tumor size D 20 [7, 9]: 396.57 mm^3

CS(=O)(=O)N1CCN(Cc2csc3c(-c4cccc(O)c4)nc(N4CCOCC4)nc23)CC1 [Compound 13]
IC50 [1]: 265 nM | IC50 [2]: 327 nM

CS(=O)(=O)N1CCN(Cc2csc3c(-c4cccc5[nH]ncc45)nc(N4CCOCC4)nc23)CC1 [Compound 6]
IC50 [1]: 57 nM | IC50 [2]: 62 nM | IC50 [3]: 7410 nM | IC50 [4]: 6110 nM | IC50 [5]: 4640 nM

Cc1sc2c(-c3cnc(N)nc3)nc(N3CCOCC3)nc2c1CN1CCN(C(=O)CO)CC1 [Compound 29]
IC50 [1]: 18 nM | Body weight D 0 [6, 10]: 22.40 g | Body weight D 20 [6, 10]: 22.69 g | Body weight D 0 [6, 9]: 22.21 g | Body weight D 20 [6, 9]: 21.99 g | Body weight D 0 [6, 11]: 22.76 g | Body weight D 20 [6, 11]: 20.62 g | tolerability / toxic side effects (in words) ([6]; high dose (150 mg/kg)): the tested mice can still torelate even the high dose | IC50 [2]: 7 nM | IC50 [3]: 3740 nM | IC50 [4]: 1490 nM | TGI [7, 10]: 88.38% | Tumor size D 0 [7, 10]: 148.62 mm^3 | Tumor size D 20 [7, 10]: 232.84 mm^3 | TGI [7, 9]: 102.88% | Tumor size D 0 [7, 9]: 151.36 mm^3 | Tumor size D 20 [7, 9]: 130.48 mm^3 | TGI [7, 11]: 113.86% | Tumor size D 0 [7, 11]: 148.16 mm^3 | Tumor size D 20 [7, 11]: 47.70 mm^3 | ability to inhibit tumor growth compared with GDC-0941 (in words) ([7]; U87MG xenograft in nude mice): significantly better than GDC-0941 | in vivo anti-tumor activity (in words) ([7]; U87MG xenograft in nude mice): strong in vivo anti-tumor activity | IC50 [5]: 2700 nM

CC(C)(O)C1CCN(Cc2csc3c(-c4cnc(N)nc4)nc(N4CCOCC4)nc23)CC1 [Compound 17]
IC50 [1]: 245 nM | IC50 [2]: 65.4 nM | IC50 [3]: 7810 nM | IC50 [4]: 5390 nM | IC50 [5]: 4820 nM

O=C(CO)N1CCN(Cc2csc3c(-c4cccc5[nH]ncc45)nc(N4CCOCC4)nc23)CC1 [Compound 26]
IC50 [1]: 141 nM | IC50 [2]: 41 nM | IC50 [3]: 19700 nM | IC50 [4]: 3280 nM | IC50 [5]: 9330 nM

C[C@H](O)C(=O)N1CCN(Cc2csc3c(-c4cccc5[nH]ncc45)nc(N4CCOCC4)nc23)CC1 [Compound 27]
IC50 [1]: 76 nM | IC50 [2]: 18 nM

CS(=O)(=O)N1CCN(Cc2csc3c(-c4ccc(N)nc4)nc(N4CCOCC4)nc23)CC1 [Compound 12]
IC50 [1]: 232 nM | IC50 [2]: 190 nM

C[C@@H](O)C(=O)N1CCN(Cc2csc3c(-c4cnc(N)nc4)nc(N4CCOCC4)nc23)CC1 [Compound 19]
IC50 [1]: 51.4 nM | IC50 [2]: 31.9 nM | IC50 [3]: 8080 nM | IC50 [4]: 2610 nM | IC50 [5]: 3990 nM

Nc1ncc(-c2nc(N3CCOCC3)nc3c(CN4CCN(C(=O)CO)CC4)csc23)cn1 [Compound 28]
IC50 [1]: 24 nM | IC50 [2]: 38 nM | IC50 [3]: 4460 nM | IC50 [4]: 1940 nM | IC50 [5]: 2600 nM

C[C@@H](O)C(=O)N1CCN(Cc2csc3c(-c4cccc5[nH]ncc45)nc(N4CCOCC4)nc23)CC1 [Compound 23]
IC50 [1]: 202 nM | IC50 [2]: 16 nM
